Reference: publication PMC5791972 (PLoS ONE, 2018)
“Also recorded” adds a separate entry of the source. Read-outs that look alike come from different tables or passages of the source.

Assays:
PDE4D2 (h) = PDE4D2 (h) (Homo sapiens, UniProt Q08499); assay: biochemical; details: 1.0E-06 M
COX1 (h) = target: T1, COX1 (h) (Homo sapiens, UniProt P23219); assay: biochemical; details: 1.0E-06 M
T1 construct: Cerep (contract assay); host or cells: Sf9 cells

hTRPC1/hTRPC5 = target: T2, hTRPC1/hTRPC5 (Homo sapiens, UniProt Q9UL62); assay: Whole-cell manual patch clamp; assay type: cell-based
T2 construct: The cDNAs for various full-length ion channels were subcloned into pcDNA5/TO; expressed in transfected cells; host or cells: heterologous co-expression
T2 sequence (Q9UL62 whole entry): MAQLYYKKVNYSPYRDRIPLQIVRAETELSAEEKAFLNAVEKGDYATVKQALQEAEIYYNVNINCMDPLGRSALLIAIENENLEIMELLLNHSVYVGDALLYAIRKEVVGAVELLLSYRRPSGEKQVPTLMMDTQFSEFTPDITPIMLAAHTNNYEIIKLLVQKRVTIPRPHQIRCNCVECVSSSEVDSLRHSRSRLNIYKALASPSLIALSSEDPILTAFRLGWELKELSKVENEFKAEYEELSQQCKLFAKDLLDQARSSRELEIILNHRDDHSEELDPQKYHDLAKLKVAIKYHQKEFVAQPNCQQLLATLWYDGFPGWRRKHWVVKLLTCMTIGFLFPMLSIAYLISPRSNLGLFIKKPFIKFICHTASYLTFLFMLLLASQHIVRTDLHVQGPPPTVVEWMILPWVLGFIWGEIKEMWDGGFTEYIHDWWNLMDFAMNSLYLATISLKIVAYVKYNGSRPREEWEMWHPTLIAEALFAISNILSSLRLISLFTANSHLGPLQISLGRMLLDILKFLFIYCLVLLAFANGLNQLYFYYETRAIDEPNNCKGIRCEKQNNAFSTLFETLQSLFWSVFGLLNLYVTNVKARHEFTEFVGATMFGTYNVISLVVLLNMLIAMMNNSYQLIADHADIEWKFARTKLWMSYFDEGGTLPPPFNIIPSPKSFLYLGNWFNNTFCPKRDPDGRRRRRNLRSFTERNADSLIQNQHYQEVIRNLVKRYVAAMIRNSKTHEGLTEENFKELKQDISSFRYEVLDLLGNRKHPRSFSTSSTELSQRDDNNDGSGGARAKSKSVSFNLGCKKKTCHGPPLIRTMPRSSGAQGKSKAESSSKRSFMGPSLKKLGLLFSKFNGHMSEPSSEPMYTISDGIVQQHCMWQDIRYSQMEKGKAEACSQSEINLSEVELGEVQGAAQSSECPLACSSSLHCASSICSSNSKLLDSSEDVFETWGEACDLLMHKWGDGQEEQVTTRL
T2 sequence (P48995 whole entry partner): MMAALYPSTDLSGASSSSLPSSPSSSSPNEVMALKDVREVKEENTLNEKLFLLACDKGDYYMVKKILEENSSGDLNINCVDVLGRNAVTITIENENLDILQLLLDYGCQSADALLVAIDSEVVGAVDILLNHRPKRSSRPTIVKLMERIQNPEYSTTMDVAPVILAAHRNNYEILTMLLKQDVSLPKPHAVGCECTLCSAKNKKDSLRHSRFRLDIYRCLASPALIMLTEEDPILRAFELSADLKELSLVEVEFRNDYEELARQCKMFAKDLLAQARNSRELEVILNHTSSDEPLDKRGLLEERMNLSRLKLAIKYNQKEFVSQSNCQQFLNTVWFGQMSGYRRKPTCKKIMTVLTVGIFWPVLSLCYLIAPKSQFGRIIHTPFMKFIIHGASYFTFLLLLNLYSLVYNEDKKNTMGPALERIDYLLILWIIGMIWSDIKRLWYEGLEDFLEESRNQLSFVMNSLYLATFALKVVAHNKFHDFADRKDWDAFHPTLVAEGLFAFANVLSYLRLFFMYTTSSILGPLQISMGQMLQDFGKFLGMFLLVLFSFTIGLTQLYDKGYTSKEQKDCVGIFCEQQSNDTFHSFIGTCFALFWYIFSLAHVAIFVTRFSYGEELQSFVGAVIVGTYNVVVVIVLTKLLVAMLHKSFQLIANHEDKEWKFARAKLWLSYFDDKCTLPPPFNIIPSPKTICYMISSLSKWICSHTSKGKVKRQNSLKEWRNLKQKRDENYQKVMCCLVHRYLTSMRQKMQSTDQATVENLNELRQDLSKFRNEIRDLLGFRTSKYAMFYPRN

Lyn A kinase (h) = Lyn A kinase (h) (Homo sapiens, UniProt P07948); assay: biochemical; details: 1.0E-06 M
Sequence of Lyn A kinase (h) (P07948 whole entry): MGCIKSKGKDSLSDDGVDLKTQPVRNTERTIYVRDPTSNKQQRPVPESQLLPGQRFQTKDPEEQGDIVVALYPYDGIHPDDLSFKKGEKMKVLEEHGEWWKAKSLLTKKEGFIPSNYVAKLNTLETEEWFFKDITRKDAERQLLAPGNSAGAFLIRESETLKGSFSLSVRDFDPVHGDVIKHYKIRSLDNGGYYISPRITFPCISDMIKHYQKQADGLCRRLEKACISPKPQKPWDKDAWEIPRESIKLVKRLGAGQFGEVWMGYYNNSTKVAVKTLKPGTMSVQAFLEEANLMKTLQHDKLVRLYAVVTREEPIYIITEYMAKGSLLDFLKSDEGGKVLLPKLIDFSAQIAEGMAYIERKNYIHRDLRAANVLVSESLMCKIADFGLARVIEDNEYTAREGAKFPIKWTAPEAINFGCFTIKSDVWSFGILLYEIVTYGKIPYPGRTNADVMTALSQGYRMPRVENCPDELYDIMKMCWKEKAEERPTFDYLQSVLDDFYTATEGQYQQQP

BZD (central) = assay type: binding, rat; details: 1.0E-06 M
TR (TH) = assay type: binding, rat; details: 1.0E-06 M
α2C (h) [1] = target: T3, α2C (h) (Homo sapiens, UniProt P18825); assay type: binding; details: 1.0E-06 M
T3 construct: host or cells: CHO cells
T3 sequence (P18825 1-462): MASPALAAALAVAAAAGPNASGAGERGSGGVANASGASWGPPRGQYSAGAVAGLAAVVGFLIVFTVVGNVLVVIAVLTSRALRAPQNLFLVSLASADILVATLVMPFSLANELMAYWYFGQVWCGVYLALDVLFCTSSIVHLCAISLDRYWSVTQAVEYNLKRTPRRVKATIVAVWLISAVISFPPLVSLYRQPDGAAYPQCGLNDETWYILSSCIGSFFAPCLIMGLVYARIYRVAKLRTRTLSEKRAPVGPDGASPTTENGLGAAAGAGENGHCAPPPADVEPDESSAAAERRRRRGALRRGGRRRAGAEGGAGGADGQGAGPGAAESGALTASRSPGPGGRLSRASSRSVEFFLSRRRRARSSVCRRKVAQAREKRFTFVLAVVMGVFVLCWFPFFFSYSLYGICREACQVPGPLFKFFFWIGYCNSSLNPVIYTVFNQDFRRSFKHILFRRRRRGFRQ

caspase-3 (h) = target: T4, caspase-3 (h) (Homo sapiens, UniProt P42574); assay: biochemical; details: 1.0E-06 M
T4 construct: Cerep (contract assay); host or cells: E. coli
T4 sequence (P42574 29-175 limits assumed): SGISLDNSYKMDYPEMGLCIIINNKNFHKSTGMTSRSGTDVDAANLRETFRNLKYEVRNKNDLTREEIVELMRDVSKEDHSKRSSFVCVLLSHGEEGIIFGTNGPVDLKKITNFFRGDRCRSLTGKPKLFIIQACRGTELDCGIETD
T4 sequence (P42574 176-277 limits assumed): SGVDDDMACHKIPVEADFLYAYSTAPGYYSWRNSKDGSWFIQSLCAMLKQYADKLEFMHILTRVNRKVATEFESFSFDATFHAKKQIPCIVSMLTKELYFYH

AMPA = assay type: binding, rat; details: 1.0E-06 M
[2] = target: T5, choline transporter (CHT1) (h) (Homo sapiens, UniProt Q9GZV3); assay type: binding; details: 1.0E-06 M
T5 construct: host or cells: CHO cells
T5 sequence (Q9GZV3 1-580): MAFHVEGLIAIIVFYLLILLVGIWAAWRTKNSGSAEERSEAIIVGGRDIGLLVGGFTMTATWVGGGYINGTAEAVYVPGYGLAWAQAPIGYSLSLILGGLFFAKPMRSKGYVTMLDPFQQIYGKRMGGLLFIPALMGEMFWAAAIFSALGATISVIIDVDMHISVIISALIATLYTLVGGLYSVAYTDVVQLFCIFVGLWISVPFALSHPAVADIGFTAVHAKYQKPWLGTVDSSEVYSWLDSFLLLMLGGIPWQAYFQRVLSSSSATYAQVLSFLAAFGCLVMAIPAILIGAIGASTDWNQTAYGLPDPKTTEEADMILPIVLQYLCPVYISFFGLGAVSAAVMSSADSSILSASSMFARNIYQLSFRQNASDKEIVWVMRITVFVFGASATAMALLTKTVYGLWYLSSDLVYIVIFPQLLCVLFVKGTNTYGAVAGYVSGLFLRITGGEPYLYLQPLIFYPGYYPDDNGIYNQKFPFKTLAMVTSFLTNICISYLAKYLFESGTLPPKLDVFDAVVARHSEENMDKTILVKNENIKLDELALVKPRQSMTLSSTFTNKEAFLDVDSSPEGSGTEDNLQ

C57BL/6J mice = assay: Pavlovian fear learning and memory, non-manipulated mice; assay type: in vivo, mouse; details: 1 or 3 mg/kg oral, 2 h before
α2C (h) [3] = target: T3, α2C (h); assay type: binding; details: 1 h
Kv7.1 = target: T6, Kv7.1 (Homo sapiens, UniProt P51787); assay: Ion channel selectivity patch clamp; assay type: cell-based; details: Voltage (+20 mV)
T6 construct: expressed in transfected cells

Sequence of PDE4D2 (h) (Q08499 303-809 limits assumed): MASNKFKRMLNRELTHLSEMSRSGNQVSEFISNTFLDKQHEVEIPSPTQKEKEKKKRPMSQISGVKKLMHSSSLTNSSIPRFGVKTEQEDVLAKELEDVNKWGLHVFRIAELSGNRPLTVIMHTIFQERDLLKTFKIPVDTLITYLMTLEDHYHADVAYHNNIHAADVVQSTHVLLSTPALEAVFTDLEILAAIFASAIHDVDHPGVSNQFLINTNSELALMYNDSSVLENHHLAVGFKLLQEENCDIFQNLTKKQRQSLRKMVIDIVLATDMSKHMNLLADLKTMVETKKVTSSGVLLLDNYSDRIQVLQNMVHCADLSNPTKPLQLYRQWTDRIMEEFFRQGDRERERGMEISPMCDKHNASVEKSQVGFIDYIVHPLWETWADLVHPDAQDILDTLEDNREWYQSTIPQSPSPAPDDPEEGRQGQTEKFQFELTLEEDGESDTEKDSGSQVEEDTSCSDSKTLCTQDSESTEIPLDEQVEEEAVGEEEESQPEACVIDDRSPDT
T1 sequence (P23219 24-599): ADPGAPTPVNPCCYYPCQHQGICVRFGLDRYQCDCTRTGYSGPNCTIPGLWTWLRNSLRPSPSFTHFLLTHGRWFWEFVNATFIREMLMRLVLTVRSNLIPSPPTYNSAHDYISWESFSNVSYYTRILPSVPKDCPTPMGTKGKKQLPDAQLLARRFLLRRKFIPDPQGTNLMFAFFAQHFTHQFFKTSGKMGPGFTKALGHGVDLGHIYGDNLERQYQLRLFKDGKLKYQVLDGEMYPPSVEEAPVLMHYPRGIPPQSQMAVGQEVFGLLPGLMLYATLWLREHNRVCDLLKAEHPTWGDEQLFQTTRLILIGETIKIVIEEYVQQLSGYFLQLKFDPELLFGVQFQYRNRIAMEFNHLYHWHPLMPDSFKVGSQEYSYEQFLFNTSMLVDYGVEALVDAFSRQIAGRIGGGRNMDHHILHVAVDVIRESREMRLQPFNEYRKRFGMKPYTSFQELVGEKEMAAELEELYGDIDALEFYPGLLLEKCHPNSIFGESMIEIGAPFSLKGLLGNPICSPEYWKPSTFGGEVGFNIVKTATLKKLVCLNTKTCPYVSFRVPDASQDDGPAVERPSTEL

Question: `Cn1c(=O)n(CCCO)c(=O)c2c1nc(Oc1cccc(OC(F)(F)F)c1)n2Cc1ccc(Cl)cc1` [HC-608] was tested. Which inhibition at 1 µM (PDE4D2 (h); read-out: % Inhibition 1st) did it give?
Answer: 1.3%

Question: What about the inhibition at 1 µM (PDE4D2 (h); read-out: % Inhibition 2nd) of the same compound?
Answer: -2%

Question: And the inhibition at 1 µM (PDE4D2 (h); read-out: % Inhibition Mean)?
Answer: -0.3%

Question: What about the inhibition at 1 µM (COX1 (h); read-out: % Inhibition 1st) of the same compound?
Answer: -1.5%

Question: And the inhibition at 1 µM (COX1 (h); read-out: % Inhibition 2nd)?
Answer: 27.2%

Question: What about the inhibition at 1 µM (COX1 (h); read-out: % Inhibition Mean) of the same compound?
Answer: 12.9%

Question: What about the IC50 (hTRPC1/hTRPC5; 20 μM carbachol/M1R) of the same compound?
Answer: ~4.7 nM

Question: And the IC50 (hTRPC1/hTRPC5; La3+ (80 μM))?
Answer: ~1.4 nM

Question: And the inhibition at 1 µM (Lyn A kinase (h); read-out: % Inhibition 1st)?
Answer: 13.7%

Question: And the inhibition at 1 µM (Lyn A kinase (h); read-out: % Inhibition 2nd)?
Answer: 5.5%

Question: And the inhibition at 1 µM (Lyn A kinase (h); read-out: % Inhibition Mean)?
Answer: 9.6%

Question: What about the “% Inhibition 1st” value (BZD (central)) of the same compound?
Answer: -3%

Question: And the “% Inhibition 2nd” value (BZD (central))?
Answer: -31.5%

Question: And the “% Inhibition Mean” value (BZD (central))?
Answer: -17.3%

Question: What about the “% Inhibition 1st” value (TR (TH)) of the same compound?
Answer: 3.2%

Question: And the “% Inhibition 2nd” value (TR (TH))?
Answer: -1.6%

Question: What about the “% Inhibition Mean” value (TR (TH)) of the same compound?
Answer: 0.8%

Question: What about the inhibition at 1 µM (α2C (h) [1]; read-out: % Inhibition 1st) of the same compound?
Answer: -4.1%

Question: And the inhibition at 1 µM (α2C (h) [1]; read-out: % Inhibition 2nd)?
Answer: -10.2%

Question: And the inhibition at 1 µM (α2C (h) [1]; read-out: % Inhibition Mean)?
Answer: -7.1%

Question: And the inhibition at 1 µM (caspase-3 (h); read-out: % Inhibition 1st)?
Answer: 3.7%

Question: What about the inhibition at 1 µM (caspase-3 (h); read-out: % Inhibition 2nd) of the same compound?
Answer: 2.3%

Question: What about the inhibition at 1 µM (caspase-3 (h); read-out: % Inhibition Mean) of the same compound?
Answer: 3%

Question: What about the “% Inhibition 1st” value (AMPA) of the same compound?
Answer: -2.1%

Question: And the “% Inhibition 2nd” value (AMPA)?
Answer: -9.2%

Question: And the “% Inhibition Mean” value (AMPA)?
Answer: -5.6%

Question: What about the inhibition at 1 µM ([2]; read-out: % Inhibition 1st) of the same compound?
Answer: -5.8%

Question: What about the inhibition at 1 µM ([2]; read-out: % Inhibition 2nd) of the same compound?
Answer: -1.9%

Question: What about the inhibition at 1 µM ([2]; read-out: % Inhibition Mean) of the same compound?
Answer: -3.9%

Question: `Cn1c(=O)n(CCCO)c(=O)c2c1nc(Oc1cccc(Cl)c1)n2Cc1ccc(Cl)cc1` [HC-070] was tested. Which “CS-US fear learning (freezing)” value (C57BL/6J mice) did it give?
Answer: without an effect; also recorded: did not affect fear learning

Question: And the “fear memory expression to the CS” value (C57BL/6J mice)?
Answer: no drug effect

Question: And the “fear memory expression to the context” value (C57BL/6J mice)?
Answer: without effect; also recorded: no drug effect

Question: What about the inhibition at 1 µM (α2C (h) [3]; read-out: % Inhibition 1st) of the same compound?
Answer: 7.9%

Question: And the inhibition at 1 µM (α2C (h) [3]; read-out: % Inhibition 2nd)?
Answer: -1%

Question: What about the inhibition at 1 µM (α2C (h) [3]; read-out: % Inhibition Mean) of the same compound?
Answer: 3.5%

Question: And the IC50 (Kv7.1)?
Answer: > 1900 nM
